Target: T1, Trx reductase-1 (TrxR1) (Rattus norvegicus, UniProt O89049)
T1 construct: gene Txnrd1
T1 sequence (O89049 1-499): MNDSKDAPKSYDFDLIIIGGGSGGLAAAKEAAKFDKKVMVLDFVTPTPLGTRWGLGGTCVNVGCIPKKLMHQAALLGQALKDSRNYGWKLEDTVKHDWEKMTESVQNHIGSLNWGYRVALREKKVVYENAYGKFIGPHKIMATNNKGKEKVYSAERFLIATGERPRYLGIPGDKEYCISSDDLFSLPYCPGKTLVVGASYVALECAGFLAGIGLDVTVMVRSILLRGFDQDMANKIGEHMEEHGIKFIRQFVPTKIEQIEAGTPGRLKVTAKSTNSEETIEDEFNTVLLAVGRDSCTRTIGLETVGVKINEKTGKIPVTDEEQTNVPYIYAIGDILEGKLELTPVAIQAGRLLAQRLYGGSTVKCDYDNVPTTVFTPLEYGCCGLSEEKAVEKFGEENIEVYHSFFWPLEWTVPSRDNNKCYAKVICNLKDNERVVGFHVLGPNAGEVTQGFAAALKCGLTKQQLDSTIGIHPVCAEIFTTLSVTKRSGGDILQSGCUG
Test: DTNB reduction assay with purified TrxR1, […] h pre-incubation with NADPH at pH […]

Row | Compound | IC50 [µM]
1 | CNC(=O)N(NS(C)(=O)=O)S(C)(=O)=O [101MDCE, 1,2-bis(methylsulfonyl)-1-[(methylamino)carbonyl]hydrazine] | 9.9 ± 3.1
2 | O=NN(CCCl)C(=O)NCCCl [BCNU, 1,3-bis(2-chloroethyl)-1-nitrosourea] | 5.4 ± 1.4
3 | CNC(=O)N(N(CCCl)S(C)(=O)=O)S(C)(=O)=O [Laromustine, 1,2-bis(methylsulfonyl)-1-(2-chloroethyl)-2-[(methylamino)carbonyl]hydrazine] | 5 ± 1.1

Source: PMC4113355, “Carbamoylating Activity Associated with the Activation of the Antitumor Agent Laromustine Inhibits Angiogenesis by Inducing ASK1-Dependent Endothelial Cell Death” (PLoS ONE, 2014)
